The target in this assay is Amyloid-beta precursor protein (Homo sapiens, UniProt P05067). The assay can be described thus: Inhibition of amyloid beta 42 (unknown origin) secretion.
Amyloid-beta precursor protein, sequence (P05067 whole entry): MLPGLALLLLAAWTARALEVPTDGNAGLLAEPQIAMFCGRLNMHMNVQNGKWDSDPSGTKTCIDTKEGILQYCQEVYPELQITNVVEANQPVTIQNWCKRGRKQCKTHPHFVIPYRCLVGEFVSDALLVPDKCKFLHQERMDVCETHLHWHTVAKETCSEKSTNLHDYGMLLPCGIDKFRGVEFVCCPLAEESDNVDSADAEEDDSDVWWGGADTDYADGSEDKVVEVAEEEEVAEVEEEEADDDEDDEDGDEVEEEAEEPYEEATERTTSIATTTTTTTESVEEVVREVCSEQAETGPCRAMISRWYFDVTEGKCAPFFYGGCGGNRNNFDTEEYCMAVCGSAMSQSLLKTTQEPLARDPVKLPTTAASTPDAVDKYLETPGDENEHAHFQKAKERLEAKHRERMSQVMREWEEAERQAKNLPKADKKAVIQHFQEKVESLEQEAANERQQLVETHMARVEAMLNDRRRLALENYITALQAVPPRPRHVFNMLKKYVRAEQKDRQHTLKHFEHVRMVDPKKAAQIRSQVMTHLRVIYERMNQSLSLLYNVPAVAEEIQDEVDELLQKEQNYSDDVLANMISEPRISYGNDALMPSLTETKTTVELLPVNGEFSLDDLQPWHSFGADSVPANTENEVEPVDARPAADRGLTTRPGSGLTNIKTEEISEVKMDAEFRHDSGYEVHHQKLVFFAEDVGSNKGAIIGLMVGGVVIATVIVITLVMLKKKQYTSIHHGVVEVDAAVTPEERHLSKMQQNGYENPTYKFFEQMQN

On to `COc1nc(-c2cc(C)c(N[C@@H](C)c3cc(F)cc(F)c3)nn2)ccc1-n1cnc(C)c1`, for which the midpoint of inhibition, the IC50, lay at 4.1 nM.
The same measure for `COc1nc(-c2cc(C)c(N[C@@H](C)c3cc(F)c(F)c(F)c3)nn2)ccc1-n1cnc(C)c1`: 5.3 nM.

The record behind these values is BindingDB's records for PubMed 35176561 (Shenyang Pharmaceutical University, 2022).
